Data from US8829197B2, “Salts and polymorphs of desazadesferrithiocin polyether analogues as metal chelation agents” (FerroKin Biosciences, Inc., priority 2008, dated 2014).
Read-outs that look alike come from different tables or passages of the source.

Tests used:
[1] = Iron clearing efficiency in non-iron-overloaded, bile duct-cannulated rats (dose response po; po versus sc); assay type: in vivo, male Sprague-Dawley rats; details: mean ± SEM
Protocol: Cebus apella monkeys were obtained from World Wide Primates (Miami, Fla.). Male Sprague-Dawley rats were procured from Harlan Sprague-Dawley (Indianapolis, Ind.). Ultrapure salts were obtained from Johnson Matthey Electronics (Royston, UK). All hematological and biochemical studies were performed by Antech Diagnostics (Tampa, Fla.).
Cannulation of Bile Duct in Non-Iron-Overloaded Rats. The cannulation has been described previously in Bergeron, R J et al., Blood 1993, 81, 2166-2173 and Bergeron, R J et al., Ann. N.Y Acad.Sci. 1990, 612, 378-393. Bile samples were collected from male Sprague—Dawley rats (400-450 g) at 3 h intervals for 24 h. The urine sample was taken at 24 h. Sample collection and handling are as previously described. 57'58
Drug Preparation and Administration. In the iron clearing experiments the rats were given a single 50, 150, or 300 mol/kg dose of the drugs po and/or sc. The compounds were administered as a solution in water, 300 mol/kg dose only or (2) as the monosodium salt of the compound of interest (prepared by addition of the free acid to 1 equivalent of NaOH). The chelators were given to the monkeys po and sc at a dose of 150 tmol/kg. The drugs were prepared as for the rats; 2 was given po and sc as a solution in water.
Calculation of Iron Chelator Efficiency. ICE is calculated by dividing the actual amount of iron cleared by a given compound by the theoretical amount that should be cleared. The theoretical iron outputs of the chelators were generated on the basis of a 2:1 ligand:iron complex. The efficiencies in the rats and monkeys were calculated as set forth in Bergeron, R J et al., J. Med. Chem. 1999, 42, 2432-2440. Data are presented as the mean+the standard error of the mean; p-values were generated via a one-tailed Student's 1-test in which the inequality of variances was assumed; and a p-value of <0.05 was considered significant.
Chelator-Induced Iron Clearance and Iron Clearing Efficiency in Non-Iron-Overloaded Rodents Dose Response Studies. Because there is a limited amount of chelatable iron available in an animal at any given time, the iron clearance, and therefore iron-clearing efficiency of a ligand, is saturable. The key to managing this phenomenon can be found in the ferrokinetics and the dose-response properties of the ligand. In this regard, the dose-response along with the corresponding ferrokinetics of each compound given po were evaluated in the non-iron-overloaded, bile duct-cannulated rodent model.
Iron-Clearing Efficiency in Non-Iron-Overloaded Rodents and Iron-Loaded Primates: Oral versus Subcutaneous Administration. A similar protocol was carried out to confirm consistence of results and compare the effects of the compounds across species. Cebus apella monkeys and male Sprague-Dawley rats were used, 3-8 per group.

[2] = iron-loaded Cebus apella, mean ± SEM, cited from earlier work
[3] = non-iron-overloaded rats, mean ± SEM, cited from earlier work

In the case of `COCCOCCOCCOc1cccc(C2=N[C@@](C)(C(=O)O)CS2)c1O` [(S)-3′-HO-DADFT, (S)-4,5-dihydro-2-[2-hydroxy-3-(3,6,9-trioxadecyloxy)phenyl]-4-methyl-4-thiazolecarboxylic acid], the “Iron-Clearing Efficiency (%)” value ([1]; dose 50 μmol/kg) is reported as 20.7 ± 4.4%, the “Iron-Clearing Efficiency (%)” value ([1]; dose 150 μmol/kg) is reported as 18.7 ± 2.9% and the “Iron-Clearing Efficiency (%)” value ([1]; dose 300 μmol/kg) is reported as 10.6 ± 4.4%. The “Primate ICE @ 150 μmol/kg” value ([2]; po) was 23.0 ± 4.1%, the “Primate ICE @ 150 μmol/kg” value ([2]; sc) was 21.5 ± 3.2% and the “Rodent ICE @ 300 μmol/kg” value ([3]; po) was 10.6 ± 4.4%. For the same molecule, the “Rodent ICE @ 300 μmol/kg” value ([3]; sc) was 13.4 ± 4.5%.
For `C[C@]1(C(=O)O)CSC(c2ccc(O)cc2O)=N1` [(S)-4′-HO-DADFT], the “Iron-Clearing Efficiency (%)” value ([1]; dose 50 μmol/kg) was 21.7 ± 3.5%, the “Iron-Clearing Efficiency (%)” value ([1]; dose 150 μmol/kg) was 11.2 ± 4.2% and the “Iron-Clearing Efficiency (%)” value ([1]; dose 300 μmol/kg) was 5.5 ± 1.9%. The “Primate ICE @ 150 μmol/kg” value ([2]; sc) was 30.4 ± 7.2%, the “Rodent ICE @ 300 μmol/kg” value ([3]; po) was 5.5 ± 1.9% and the “Rodent ICE @ 300 μmol/kg” value ([3]; sc) was 8.7 ± 2.6%.
For `C[C@]1(C(=O)O)CSC(c2ccc(O)cc2O)=N1` [Deferitrin, (S)-2-(2,4-dihydroxyphenyl)-4,5dihydro-4-methyl-4-thiazolecarboxylic acid, reference compound], the “Iron-Clearing Efficiency (%)” value ([1]; dose 150 μmol/kg) is listed as 1.5 + 1.7%, the “Iron-Clearing Efficiency (%)” value ([1]; dose 300 μmol/kg) is listed as 1.1 ± 0.8% and the “Primate ICE @ 150 μmol/kg” value ([2]; po) is listed as 16.8 ± 7.2%. For the same molecule, the “Primate ICE @ 150 μmol/kg” value ([2]; sc) was 15.9 ± 2.7%, the “Rodent ICE @ 300 μmol/kg” value ([3]; po) was 1.1 ± 0.8% and the “Rodent ICE @ 300 μmol/kg” value ([3]; sc) was 1.1 ± 0.6%.
